Measurements taken from patent US9623108B2, “Formulation for oral administration with beneficial effects on the cardiovascular system” (ROTTAPHARM S.p.A., priority 2006, dated 2017).

What was measured:
[1] = NOAEL, doses repeated daily in an animal; format: in vivo; conditions: equivalent of the animal NOAEL in humans
[2] = molecular target: T1, HMG-CoA-r (Homo sapiens, UniProt P04035); conditions: competition with HMG-CoA at HMG-CoA-r; cited from earlier work
T1 sequence (P04035 1-888): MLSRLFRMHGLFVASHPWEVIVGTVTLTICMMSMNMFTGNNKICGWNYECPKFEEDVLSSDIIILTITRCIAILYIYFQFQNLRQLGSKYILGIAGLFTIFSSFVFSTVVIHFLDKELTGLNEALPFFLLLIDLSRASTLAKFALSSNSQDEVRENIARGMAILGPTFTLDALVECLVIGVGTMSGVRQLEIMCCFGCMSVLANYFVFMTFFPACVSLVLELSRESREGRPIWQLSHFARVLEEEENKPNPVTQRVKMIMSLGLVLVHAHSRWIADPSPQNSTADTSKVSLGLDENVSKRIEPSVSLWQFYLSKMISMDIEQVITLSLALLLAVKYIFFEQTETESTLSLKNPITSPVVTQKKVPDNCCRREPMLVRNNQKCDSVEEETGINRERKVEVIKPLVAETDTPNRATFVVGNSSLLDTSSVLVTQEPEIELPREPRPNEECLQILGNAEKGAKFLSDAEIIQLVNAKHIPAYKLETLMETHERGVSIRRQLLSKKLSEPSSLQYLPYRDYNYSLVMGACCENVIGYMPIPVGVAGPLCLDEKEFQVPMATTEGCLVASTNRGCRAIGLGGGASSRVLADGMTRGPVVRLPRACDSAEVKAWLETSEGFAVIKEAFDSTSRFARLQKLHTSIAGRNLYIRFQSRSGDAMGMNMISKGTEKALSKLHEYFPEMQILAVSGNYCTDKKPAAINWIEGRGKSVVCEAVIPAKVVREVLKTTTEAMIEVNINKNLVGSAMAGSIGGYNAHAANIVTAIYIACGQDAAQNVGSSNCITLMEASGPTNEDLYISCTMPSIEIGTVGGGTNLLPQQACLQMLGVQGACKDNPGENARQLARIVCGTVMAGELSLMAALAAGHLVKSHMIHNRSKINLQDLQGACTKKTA

[3] = tested on: rabbits rendered hypercholesterolaemic and hypertriglyceridaemic; test: Rabbits rendered hypercholesterolaemic and hypertriglyceridaemic with atherogenic feed, 3 months treatment, blood lipid analyses; format: in vivo, New Zealand White rabbits
Method: The action of the active principles, according to the composition of COMB, was tested and evaluated experimentally on rabbits rendered hypercholesterolaemic and hypertriglyceridaemic with a diet with added cholesterol, powdered egg yolk and lard. Note: all the daily doses used in the treatment groups, described in the experimental section, are about 4 times higher than those stated in the examples of formulation described in a later section. An exception is the group treated with berberine 100 mg/kg, for which the dose of active principle corresponds to about 13 times that contained in the examples of formulations intended for oral administration in humans. […] The difference in posology between animals and humans is perfectly normal in pharmacology, because it is well known that the pathologies induced experimentally in animals are always dramatically and unnaturally more severe than those that occur spontaneously in humans. New Zealand White rabbits of 6-8 weeks and with body weight of 1.8-2.0 kg. The following feeds, in pellets, were provided at a ration of 150 g of feed per day. Water was available ad libitum. ATER: Atherogenic feed, i.e. standard feed for guinea pigs and rabbits according to Sherman, in pellets (Laboratorio Dottori […].) with addition of 10% powdered egg yolk, 10% lard and 1% cholesterol according to Kong et al. [2004]. The substances under investigation were administered by stomach tube, once a day, suspended in 2 ml/kg of carboxymethylcellulose 0.2% (CMC). All the animals were acclimatized in the living quarters at 25±2° C. and relative humidity 55-65%. After 1 week, blood samples were taken in order to obtain the baseline data. The animals were then randomized to the following treatment groups of 10 rabbits each. AT: Controls with feed ATER and with daily administration of 2 ml/kg of CMC by stomach tube. Ber30: Feed AT, with daily administration of berberine 30 mg/kg in 2 ml/kg of CMC, by stomach tube. Ber100: Feed AT, with daily administration of berberine 100 mg/kg in 2 ml/kg of CMC, by stomach tube. Ass (reference association (combination) for lowering blood lipid level): Feed AT, with daily administration of Ass in 2 ml/kg of CMC, by stomach tube. COMB: Feed AT, with daily administration of Ass with addition of 30 mg/kg of berberine in 2 ml/kg of CMC, by stomach tube. The treatments were continued for 3 months. […] These analyses were carried out with suitably validated, conventional laboratory methods. A descriptive statistical analysis was performed using conventional methods of calculation.

[4] = tested on: patients who had hypercholesterolaemia and hypertriglyceridaemia; conditions: 500 mg berberine in a single dose once a day; cited from earlier work
[5] = tested on: hypercholesterolaemic patients; conditions: berberine 500 mg b.i.d.; cited from earlier work
[6] = berberine 30 mg/kg/d by stomach tube, not statistically significant
[7] = berberine 100 mg/kg/d by stomach tube, p<0.001

Question: Which “NOAEL equivalent in humans” value [1] does the source give for `CC1=C(/C=C/C(C)=C/C=C/C(C)=C/C=C/C=C(C)/C=C/C=C(C)/C=C/C2=C(C)C(=O)[C@@H](O)CC2(C)C)C(C)(C)C[C@H](O)C1=O` [Ast, 3,3′-dihydroxy-β,β′-carotene-4,4′-dione] here?
Answer: The value was “more than 80 g”.

Question: For `CC[C@H](C)C(=O)O[C@H]1C[C@@H](C)C=C2C=C[C@H](C)[C@H](CC[C@@H]3C[C@@H](O)CC(=O)O3)[C@H]21` [Monacoline K], which “activity for the enzyme relative to the natural substrate HMG-CoA” value [2] is on record?
Answer: Its value is 2000 times.

Question: With `COc1ccc2cc3[n+](cc2c1OC)CCc1cc2c(cc1-3)OCO2` [berberine, 5,6-dihydro-9,10-dimethoxybenzo[g]-1,3-benzodioxolo[5,6-a]quinolizinium] as the compound, how does the “increase in HDL” value ([3]; berberine 30 mg/kg/d) read?
Answer: Its value is 0.48 mmol/L.

Question: What about the “reduction of the increase in LDL caused by AT” value [3, 6] of the same compound?
Answer: The value was 13%.

Question: What about the “reduction of the increase in total cholesterol (CT) caused by AT” value [3, 6] of the same compound?
Answer: The value was 15%.

Question: What about the “reduction of the increase in blood triglycerides (TG) caused by AT” value ([3]; berberine 30 mg/kg/d by stomach tube, p<0.01) of the same compound?
Answer: The value was 43%.

Question: And the “increase in HDL” value ([3]; berberine 100 mg/kg/d)?
Answer: The value was 0.53 mmol/L.

Question: And the “reduction of the increase in LDL caused by AT” value [3, 7]?
Answer: Its value is 89%.

Question: And the “reduction of the increase in blood triglycerides (TG) caused by AT” value [3, 7]?
Answer: Its value is 66%.

Question: And the “reduction of the increase in total cholesterol (CT) caused by AT” value [3, 7]?
Answer: Its value is 87%.

Question: What about the hepatic transaminases [4] of the same compound?
Answer: Its hepatic transaminases is “improved”.

Question: What about the “tolerability of the treatment” value [4] of the same compound?
Answer: The value was “well tolerated”.

Question: What about the hepatic transaminases [5] of the same compound?
Answer: The hepatic transaminases was “decrease in hepatic transaminases”.
